Assay results as given in US7056450B2, “Highly concentrated aqueous solutions of N,N-dialkyl-glycines and process for preparation thereof” (Showa Denko K.K., priority 2001, dated 2006).

Assay: Standing test of aqueous solution for crystalline deposit
Type: physicochemical

Row | crystalline deposit on standing (aqueous 60% by mass solution, left standing at 0° C. for 10 days) | Compound | crystalline deposit on standing (aqueous 30% by mass solution, left standing at room temperature)
1 |  | CN(C)CC(=O)[O-].[Na+] [N,N-dimethylglycine sodium salt] | crystalline N,N-dimethylglycine sodium salt deposited
2 | no crystalline deposit was observed | CN(C)CC(=O)O [N,N-dimethylglycine] | 
